Patent EP3820512B1, “IMMUNOMODULATING COMPOSITIONS COMPRISING OLIGOSACCHARIDE DERIVATIVES” (priority 2018, dated 2020)

What was measured:
TLR2 = target: T1, TLR2 (Homo sapiens, UniProt O60603); experiment: TLR2 activity in PMA-stimulated THP-1 monocyte cells, ELISA of cell lysate; assay type: cell-based; settings: THP-1 cells
T1 construct: endogenous in cells; host or cells: THP-1 monocyte cells stimulated with PMA
Experimental: THP-1 monocyte cells (1×10^5) were stimulated with 200nM of PMA for 48h and treated with different concentrations of test compounds. The TLR2 activity was measured after 24 h from the cell lysate using ELISA.

[1] = test system: THP-1 (human monocytic) cells; experiment: Cytokine response (IL-1β, TNF-α, IL-10) of THP-1 cells treated with compounds; assay type: cell-based; settings: 100-200 µM
Experimental: When THP-1 (human monocytic) cells were treated with 100-200 µM of compounds 8, 14, 17, 23, 29, and 32, they produced an increased IL-1β and TNF-α response, decreased anti-inflammatory cytokine IL-10 (FIG. 4).

[2] = test system: human peripheral blood monocytes; experiment: IL-10 production in human peripheral blood monocytes; assay type: cell-based; settings: after 48 h
TLR7/8 = TLR7/8 modulation: cytokine ELISA in hPBMC, alone or with TLR7/8 ligand CL075; assay type: cell-based, human
From the text: Compound 8 modulates the TLR7/8 activities in a concentration dependent manner.

TLR1/2 = target: T2, TLR1/2 (Homo sapiens, UniProt O60603); experiment: TLR1/2 modulation: IL-6 ELISA in hPBMC with TLR1/2 ligand Pam3CSK4; assay type: cell-based
T2 construct: endogenous in cells; host or cells: hPBMC (human peripheral blood monocytes)
T2 sequence (O60603 21-784): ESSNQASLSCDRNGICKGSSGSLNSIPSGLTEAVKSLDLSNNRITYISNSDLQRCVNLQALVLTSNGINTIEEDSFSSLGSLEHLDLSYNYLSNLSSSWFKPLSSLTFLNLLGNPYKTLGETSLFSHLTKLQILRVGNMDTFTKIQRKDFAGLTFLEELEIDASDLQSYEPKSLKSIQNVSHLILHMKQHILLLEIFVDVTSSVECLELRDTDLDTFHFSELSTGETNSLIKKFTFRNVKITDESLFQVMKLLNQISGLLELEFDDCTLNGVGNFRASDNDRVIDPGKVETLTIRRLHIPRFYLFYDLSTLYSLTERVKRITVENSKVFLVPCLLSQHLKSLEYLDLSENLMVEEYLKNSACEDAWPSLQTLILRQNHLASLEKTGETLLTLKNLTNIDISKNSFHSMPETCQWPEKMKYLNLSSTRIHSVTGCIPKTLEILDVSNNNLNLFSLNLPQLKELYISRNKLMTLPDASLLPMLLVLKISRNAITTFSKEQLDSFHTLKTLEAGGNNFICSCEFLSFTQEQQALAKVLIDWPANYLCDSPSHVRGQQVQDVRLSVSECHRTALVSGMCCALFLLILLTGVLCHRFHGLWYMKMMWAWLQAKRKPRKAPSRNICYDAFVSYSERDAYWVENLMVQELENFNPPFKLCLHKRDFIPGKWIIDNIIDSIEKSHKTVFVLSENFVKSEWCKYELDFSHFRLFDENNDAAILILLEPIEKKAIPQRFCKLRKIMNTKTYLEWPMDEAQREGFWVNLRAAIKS
From the text: Compound 8 modulates the TLR1/2 activities in a concentration dependent manner.

TLR6 = target: T3, TLR6 (Homo sapiens, UniProt Q9Y2C9); experiment: TLR6 stimulation: IL-6 ELISA in hPBMC with TLR6 ligand Pam2CSK4; assay type: cell-based; settings: in combination with Pam2CSK4, hPBMC, 24h
T3 construct: endogenous in cells; host or cells: hPBMC (human peripheral blood monocytes)
T3 sequence (Q9Y2C9 32-796): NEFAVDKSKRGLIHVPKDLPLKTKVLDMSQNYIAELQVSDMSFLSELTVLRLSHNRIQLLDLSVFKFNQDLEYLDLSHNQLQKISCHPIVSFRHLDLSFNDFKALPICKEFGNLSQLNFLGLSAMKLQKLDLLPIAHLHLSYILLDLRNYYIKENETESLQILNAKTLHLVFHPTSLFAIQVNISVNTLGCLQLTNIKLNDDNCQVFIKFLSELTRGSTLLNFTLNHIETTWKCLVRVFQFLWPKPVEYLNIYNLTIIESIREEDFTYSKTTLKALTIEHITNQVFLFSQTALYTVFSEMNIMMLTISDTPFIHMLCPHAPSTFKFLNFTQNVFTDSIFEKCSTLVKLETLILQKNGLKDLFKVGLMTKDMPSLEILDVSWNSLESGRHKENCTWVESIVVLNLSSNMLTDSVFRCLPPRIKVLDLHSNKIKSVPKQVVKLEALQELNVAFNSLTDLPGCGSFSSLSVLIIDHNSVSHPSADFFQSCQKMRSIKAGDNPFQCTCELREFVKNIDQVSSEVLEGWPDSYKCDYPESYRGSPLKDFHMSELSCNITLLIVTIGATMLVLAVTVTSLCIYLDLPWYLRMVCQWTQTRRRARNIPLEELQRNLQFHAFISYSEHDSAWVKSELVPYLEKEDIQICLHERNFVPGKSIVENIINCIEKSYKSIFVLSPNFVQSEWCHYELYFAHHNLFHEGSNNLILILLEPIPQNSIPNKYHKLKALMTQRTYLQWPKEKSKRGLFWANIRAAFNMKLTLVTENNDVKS
T3 sequence (O60603 21-784 partner): as the sequence (O60603 21-784) above
Experimental: Compound 8 stimulates the TLR6 activities and upregulates the production of IL-6 cytokine in combination with TLR6 ligand Pam2CSK4 in hPBMC after 24h of treatment as detected by ELISA (FIG. 9).

TLR9 = target: T4, TLR9 (Homo sapiens, UniProt Q9NR96); experiment: TLR9 antagonism: IFN-α ELISA in hPBMC with TLR9 ligand ODN2216; assay type: cell-based; settings: in combination with ODN2216, hPBMC, 48h
T4 construct: endogenous in cells; host or cells: hPBMC (human peripheral blood monocytes)
T4 sequence (Q9NR96 26-1032): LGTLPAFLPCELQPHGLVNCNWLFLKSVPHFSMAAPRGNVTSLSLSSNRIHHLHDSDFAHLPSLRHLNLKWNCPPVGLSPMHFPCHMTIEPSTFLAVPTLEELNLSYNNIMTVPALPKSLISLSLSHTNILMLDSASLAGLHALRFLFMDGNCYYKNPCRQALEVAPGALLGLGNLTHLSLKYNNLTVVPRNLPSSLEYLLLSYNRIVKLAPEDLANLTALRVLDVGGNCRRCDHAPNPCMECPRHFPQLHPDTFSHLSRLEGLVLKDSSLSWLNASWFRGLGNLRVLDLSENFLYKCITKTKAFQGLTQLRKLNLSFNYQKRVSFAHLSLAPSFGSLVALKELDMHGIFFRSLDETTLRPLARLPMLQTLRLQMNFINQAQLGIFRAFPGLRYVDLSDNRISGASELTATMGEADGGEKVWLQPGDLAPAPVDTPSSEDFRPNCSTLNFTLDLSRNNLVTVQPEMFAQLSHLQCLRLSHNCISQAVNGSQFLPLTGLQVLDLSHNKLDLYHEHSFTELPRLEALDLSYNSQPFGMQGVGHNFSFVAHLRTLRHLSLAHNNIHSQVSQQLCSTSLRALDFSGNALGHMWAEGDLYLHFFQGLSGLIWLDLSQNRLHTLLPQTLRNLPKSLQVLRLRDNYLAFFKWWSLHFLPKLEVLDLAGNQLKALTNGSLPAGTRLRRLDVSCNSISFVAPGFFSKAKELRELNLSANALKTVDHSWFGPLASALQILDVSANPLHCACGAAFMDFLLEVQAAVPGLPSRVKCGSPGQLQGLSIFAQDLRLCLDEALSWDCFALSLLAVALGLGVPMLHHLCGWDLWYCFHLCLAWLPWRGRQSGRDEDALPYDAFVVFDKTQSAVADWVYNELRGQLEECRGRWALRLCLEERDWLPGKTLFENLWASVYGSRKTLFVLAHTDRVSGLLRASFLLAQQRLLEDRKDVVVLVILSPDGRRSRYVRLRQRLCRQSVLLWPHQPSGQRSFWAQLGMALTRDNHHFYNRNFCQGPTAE
Experimental: Compound 8 antagonizes the TLR9 activities and downregulates the production of IFN-α in combination with TLR9 ligand ODN2216 in hPBMC after 48h of treatment as detected by ELISA (FIG. 11).

hPBMC = experiment: Cytotoxicity in hPBMC, MTT cell proliferation kit; assay type: cell-based, human; settings: 0.1, 1.0, 10, 100 and 1000 µM, 24h
Experimental: The cells were treated with compounds and incubated for 24h. Cell viability was assessed using MTT cell proliferation kit (Promega).

HUVECs = experiment: Cytotoxicity in HUVECs, MTT cell proliferation kit; assay type: cell-based, human; settings: 100 µM, 24h
Experimental: Selected TLR2/4 antagonist compounds 2, 6, 7, 8, 14, 17 and 32 were evaluated for cytotoxicity in HUVECs at 100 µM concentration. The cells were treated with compounds and incubated for 24h. Cell viability was assessed using MTT cell proliferation kit (Promega). All the compounds were not toxic to HUVECs (FIG. 15).

TLR4 = TLR4 (Homo sapiens, UniProt O00206); experiment: TLR4 inhibitory and activating activity in THP-1 cells at low and high concentrations; assay type: cell-based; design: endogenous in cells; host or cells: THP-1 (human monocytic) cells
Sequence of TLR4 (O00206 24-839): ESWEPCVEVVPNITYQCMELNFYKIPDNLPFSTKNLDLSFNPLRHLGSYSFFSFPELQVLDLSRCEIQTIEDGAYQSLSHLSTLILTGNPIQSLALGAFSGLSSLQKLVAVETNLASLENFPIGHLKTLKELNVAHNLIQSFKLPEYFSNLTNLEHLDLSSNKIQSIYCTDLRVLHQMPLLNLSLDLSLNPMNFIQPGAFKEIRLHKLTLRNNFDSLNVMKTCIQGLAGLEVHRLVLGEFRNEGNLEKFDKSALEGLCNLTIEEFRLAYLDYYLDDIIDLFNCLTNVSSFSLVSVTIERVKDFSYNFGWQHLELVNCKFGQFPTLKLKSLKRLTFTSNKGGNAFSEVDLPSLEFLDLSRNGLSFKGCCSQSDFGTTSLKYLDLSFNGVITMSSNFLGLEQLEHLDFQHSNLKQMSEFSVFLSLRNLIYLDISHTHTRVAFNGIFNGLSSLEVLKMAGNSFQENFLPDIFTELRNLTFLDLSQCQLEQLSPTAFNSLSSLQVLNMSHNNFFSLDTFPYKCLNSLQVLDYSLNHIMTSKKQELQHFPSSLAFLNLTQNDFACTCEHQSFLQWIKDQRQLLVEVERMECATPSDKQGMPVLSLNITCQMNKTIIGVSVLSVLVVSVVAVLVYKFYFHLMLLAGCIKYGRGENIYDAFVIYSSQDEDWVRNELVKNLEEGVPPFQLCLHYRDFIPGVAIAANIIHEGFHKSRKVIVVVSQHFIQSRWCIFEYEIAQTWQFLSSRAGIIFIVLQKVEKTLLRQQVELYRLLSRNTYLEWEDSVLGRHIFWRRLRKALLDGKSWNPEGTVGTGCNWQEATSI
Sequence of TLR4 (Q9Y6Y9 17-160 partner limits assumed): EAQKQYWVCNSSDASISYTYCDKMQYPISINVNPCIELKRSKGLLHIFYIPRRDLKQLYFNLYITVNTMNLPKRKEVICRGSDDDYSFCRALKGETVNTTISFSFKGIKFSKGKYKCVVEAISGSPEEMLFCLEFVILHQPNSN

T1 sequence (O60603 21-784): as the sequence (O60603 21-784) above

CC(=O)N[C@H]1[C@H](Oc2ccc([N+](=O)[O-])cc2)O[C@H](CO)[C@@H](O)[C@@H]1O [Compound 8, p-Nitrophenyl 2-acetamido-2-deoxy-β-D-glucopyranoside]
% inhibition over control TLR2 (TLR2; Concentration 1-10 µM): + (+ means that the % of inhibition or activation is in the range of 15-25%)
% inhibition over control TLR2 (TLR2; Concentration 75-100 µM): ++ (++ means that the % of inhibition or activation is in the range of 25-75%)
IL-1β response [1]: increased
TNF-α response [1]: increased
anti-inflammatory cytokine IL-10 [1]: decreased
IL-10 production ([2]; 0.1-1.0 µM): increase
IL-10 production ([2]; 10-100 µM): decrease
IL-10 protein level (TLR7/8; 0.1 µM to <1 µM, alone or in combination with CL075, hPBMC, 24h, ELISA): downregulate
production of IL-1β (TLR7/8; 1.0 µM, alone and in combination with CL075, hPBMC): significantly stimulated
IL-6 protein level (TLR1/2; 0.1 µM to <1 µM, in combination with Pam3CSK4, hPBMC, 24h, ELISA): downregulate
production of IL-6 (TLR1/2; 1.0, 10 and 100 µM, in combination with CL075, hPBMC): significantly stimulated
production of IL-6 cytokine (TLR6): upregulates
production of IFN-α (TLR9): downregulates
cytotoxicity in hPBMC (cell viability) (hPBMC): not toxic
cytotoxicity in HUVECs (cell viability) (HUVECs): not toxic
% inhibition over control TLR4 (TLR4; Concentration 1-10 µM, THP-1 cells): +++ (+++ means that the % of inhibition or activation is in the range of 75-95%)
% activation over control TLR4 (TLR4; Concentration 75-100 µM, THP-1 cells): ++ (++ means that the % of inhibition or activation is in the range of 25-75%)
TLR4 modulatory activity (TLR4; summary in words): concentration dependent TLR4 modulatory activity
